# Test results reported in US7173037B2, “Carbamate-substituted pyrazolopyridines” (Bayer HealthCare AG, priority 2002, dated 2007).
# Like-named read-outs stand apart in the source and are kept apart here.
# Key:
# rabbit aorta rings = assay: Vasorelaxant effect in vitro (phenylephrine-contracted aorta rings); format: cell-based; details: Oryctolagus cuniculus, phenylephrine contraction, read-out: IC50 (concentration necessary to reduce the height of the contraction by 50%)
# Procedure: Rabbits are stunned by a blow to the back of the neck and are exsanguinated. The aorta is removed, freed of adherent tissue and divided into rings 1.5 mm wide, which are put singly under tension in 5 ml organ baths containing carbogen-gassed Krebs-Henseleit solution at 37° C. with the following composition (mM): NaCl:119; KCl:4.8; CaCl2×2H2O:1; MgSO4×7H2O:1.4; KH2PO4:1.2; NaHCO3:25; Glucose:10. The force of contraction is detected with Statham UC2 cells, amplified and digitized via A/D converters (DAS-1802 HC, Keithley Instruments Munich) and recorded in parallel on chart recorders. A contraction is generated by adding phenylephrine to the bath cumulatively in increasing concentration. After several control cycles, the substance to be investigated is investigated in each further run in increasing dosage in each case, and the height of the contraction is compared with the height of the contraction reached in the last preceding run. The concentration necessary to reduce the height of the control value by 50% (IC50) is calculated from this. The standard application volume is 5 μl, and the DMSO content in the bath solution corresponds to 0.1%.
# CYP2B6 [1] = details: human, hepatocytes, 5 days
# CYP1A2 = assay: Induction of cytochrome P450 enzymes in human liver cell cultures, CYP1A2; format: in vitro ADME; details: human hepatocyte cultures, control = 1.0
# rabbit penis erection = assay: Rabbit model (erection, length of the protruding penis); format: in vivo, chinchilla rabbits; details: oral administration, with simultaneous 0.2 mg/kg i.v. sodium nitroprusside SNP
# Procedure: Adult male chinchilla rabbits weighing 3–5 kg are adapted to being kept singly for several days after delivery. They have free access to water and can take feed for two hours a day. The animals are kept in a 10/14-hour day/night rhythm (light on from 8.00 h), and the room temperature is 22–24° C.
# Three to six animals are used in each treatment group and are weighed immediately before the start of the test. For the i.v. administration, the substances are dissolved in Transcutol (GATTEFOSSE GmbH) and diluted in the ratio 3/7 with a 20% strength Cremophor solution (Cremophor (BASF), water). A volume of 0.5 ml/kg is injected into the ear vein. Water-soluble substances are injected in 0.9% sodium chloride solution.
# For oral administration, the test substances are dissolved in a 6:10:9.69 glycerol:water:polyethylene glycol mixture and administered by gavage in a volume of 1 ml/kg.
# Under resting conditions, the rabbit penis is invisible in the pubic region and is completely covered by the penis skin. The erection is assessed by measuring the length of the protruding penis with a slide calliper. […] The animals are for this purpose removed from the cage each time, held firmly by the neck fur and the rear paws, turned on their backs and measured. […]
# CYP2C19 [2] = details: human, hepatocytes, 5 days
# [3] = design: species or system rats; details: rat, in vivo, po
# Procedure: The substance to be investigated is administered intravenously as solution to animals (e.g. mice, rats, dogs), and oral administration takes place as solution or suspension by gavage. After administration of the substance, blood is taken from the animals at fixed times and is heparinized, and then plasma is obtained therefrom by centrifugation. The substance is quantified analytically in the plasma by LC/MS/MS. The plasma concentration/time courses found in this way are used to calculate the pharmacokinetic parameters by means of a validated pharmacokinetic computer programme.
# Inhibition of Cytochrome P450 Enzymes
# CYP3A4 = details: human, hepatocytes
# CYP2C19 [4] = assay: Induction of cytochrome P450 enzymes in human liver cell cultures, CYP2C19; details: human hepatocyte cultures, 2000 μM, control = 1.0
# CYP2B6 [5] = assay: Induction of cytochrome P450 enzymes in human liver cell cultures, CYP2B6; details: human hepatocyte cultures, 2000 μM, control = 1.0
smiles,measurement,setting,value
"COC(=O)N(C)c1cnc(-c2nn(Cc3ccccc3F)c3ncccc23)nc1N [Example 1, Methyl 4-amino-2-[1-(2-fluorobenzyl)-1H-pyrazolo[3,4-b]pyridin-3-yl]-5-pyrimidinyl(methyl)carbamate]",IC50,rabbit aorta rings,670 nM
"COC(=O)N(C)c1c(N)nc(-c2nn(Cc3ccccc3F)c3ncccc23)nc1N [Example 8, Methyl 4,6-diamino-2-[1-(2-fluorobenzyl)-1H-pyrazolo[3,4-b]pyridin-3-yl]-5-pyrimidinyl(methyl)carbamate]",Inductive effect on CYP2B6 activity (standardized),CYP2B6 [1]; 0.01 μg/ml,1.92
same,Inductive effect on CYP2B6 activity (standardized),CYP2B6 [1]; 0.1 μg/ml,1.62
same,Inductive effect on CYP2B6 activity (standardized),CYP2B6 [1]; 1 μg/ml,1.85
same,Inductive effect on CYP2B6 activity (standardized),CYP2B6 [1]; 10 μg/ml,2.54
same,Inductive effect on CYP1A2 activity (standardized),CYP1A2; 0.01 μg/ml,0.76
same,Inductive effect on CYP1A2 activity (standardized),CYP1A2; 0.1 μg/ml,0.70
same,Inductive effect on CYP1A2 activity (standardized),CYP1A2; 1.0 μg/ml,0.90
same,Inductive effect on CYP1A2 activity (standardized),CYP1A2; 10 μg/ml,1.38
same,minimal effective dose,rabbit penis erection,0.03 mg/kg
same,IC50,rabbit aorta rings,500 nM
same,Inductive effect on CYP2C19 activity (standardized),CYP2C19 [2]; 0.01 μg/ml,1.30
same,Inductive effect on CYP2C19 activity (standardized),CYP2C19 [2]; 0.1 μg/ml,1.30
same,Inductive effect on CYP2C19 activity (standardized),CYP2C19 [2]; 1 μg/ml,1.12
same,Inductive effect on CYP2C19 activity (standardized),CYP2C19 [2]; 10 μg/ml,1.97
same,AUCstand,[3]; 0.3 mg/kg,0.326 kg·h/L
same,AUCstand,[3]; 1 mg/kg,0.548 kg·h/L
same,Inductive effect on CYP3A4 activity (standardized),"CYP3A4; 5 days, 0.01 μg/ml",1.37
same,Inductive effect on CYP3A4 activity (standardized),"CYP3A4; 5 days, 0.1 μg/ml",1.60
same,Inductive effect on CYP3A4 activity (standardized),"CYP3A4; 5 days, 1 μg/ml",1.51
same,Inductive effect on CYP3A4 activity (standardized),"CYP3A4; 5 days, 10 μg/ml",3.47
"COc1ccc2[nH]c([S+]([O-])Cc3ncc(C)c(OC)c3C)nc2c1 (stereo not drawn) [OME, omeprazole, reference compound]",Inductive effect on CYP2B6 activity (standardized),CYP2B6 [1]; 100 μM,1.54
same,Inductive effect on CYP1A2 activity (standardized),CYP1A2; 100 μM,28.57
same,Inductive effect on CYP2C19 activity (standardized),CYP2C19 [2]; 100 μM,1.61
same,Inductive effect on CYP3A4 activity (standardized),"CYP3A4; 5 days, 100 μM",1.45
"CCC1(c2ccccc2)C(=O)NC(=O)NC1=O [PB, phenobarbital]",Inductive effect on CYP2C19 activity (standardized),CYP2C19 [4],4.00
same,Inductive effect on CYP2B6 activity (standardized),CYP2B6 [5],14.69
same,Inductive effect on CYP3A4 activity (standardized),CYP3A4,6.70
"CO[C@H]1/C=C/O[C@@]2(C)Oc3c(C)c(O)c4c(O)c(c(/C=N/N5CCN(C)CC5)c(O)c4c3C2=O)NC(=O)/C(C)=C\C=C\[C@H](C)[C@H](O)[C@@H](C)[C@@H](O)[C@@H](C)[C@H](OC(C)=O)[C@@H]1C [RIF, rifampicin, reference compound]",Inductive effect on CYP2B6 activity (standardized),CYP2B6 [1]; 50 μM,5.15
same,Inductive effect on CYP2C19 activity (standardized),CYP2C19 [2]; 50 μM,15.21
